# Molecular target: PDE9A (Homo sapiens (Human), UniProt O76083)
# Assay: PDE9A inhibition, fluorescence polarization assay (IMAP-FP screening express kit)
# Format: biochemical
# Conditions: 10 μM of the compound
# Experimental: The inhibitory activity of the representative compounds according to the present invention against phosphodiesterase 9A was tested based on the polarization assay (IMAP-FP screening express kit) provided by MDS (MDS Analytical Technologies, Sunyvale, CA, USA). As a buffer solution, a reaction solution (a reaction solution containing 0.01% Tween 20 provided by MDS was diluted 5 times, then 5 mM DTT is added) and a polarization detection solution (binding solution A and B provided by MDS were mixed at a ratio of 3:1 and IMAP binding reagent 1/600 was added) were prepared. 100 μM of the substrate (Fl-cGMP substrate; MDS) and 3.6 μg/ml of the enzyme PDE9A (ab54113; abcam) were prepared. 3.6 μg/ml PDE9A and 100 μM substrate were diluted to 20 ng/ml (final reaction concentration: 5 ng/ml) and 400 nM (final reaction concentration: 100 nM), respectively. The buffer solution used for all dilution and preparation processes was 1× reaction solution with 1 mM DTT added, and the polarization detection solution was used to induce polarization at the end.
# The prepared samples were dispensed on black microplates (Multiwell 384 well plates, #3573, Corning Life Sciences, Lowell, MA, USA) using a 16-channel pipette (multi 16-channel, Finnpipette, Thermo Scientific, Essex, UK). The total reaction volume per well is 20 μl. At this time, 10 μl of 2% DMSO, 5 μl of substrate solution, and 5 μl of reaction solution were used as a negative control, and 10 μl of 2% DMSO, 5 μl of substrate solution, and 5 μl of PDE9A solution were used as a positive control. As the experimental group, 10 μl of the compound prepared in Example, 5 μl of the substrate solution, and 5 μl of the PDE9A solution were used. After pretreatment between the compound and the enzyme was performed for about 10 minutes before the enzyme-substrate reaction, 5 μl of cGMP was added to induce the enzyme reaction. During the reaction, each compound, enzyme, and substrate occupied 50%, 25%, and 25% of the total volume, respectively, and they were prepared at high concentrations of 2, 4, and 4 times, respectively, immediately before addition. After the enzymatic reaction, it was shaken lightly for 1 minute and the enzyme reaction was induced at room temperature for 1 hour. Then, 60 μl of a polarization detection solution prepared in advance was added to induce polarization.
# Nanoparticles composed of trivalent metal ions are mixed in the fluorescence detection solution, which combines with phosphoric acid expose by enzymatic reaction to increase the molecular weight and induce polarization. After leaving for 2 hours at room temperature, the polarization (Fluorescence Polarization, FP) value was measured using a multilabel counter (Envision, PerkinElmer, Turku, Finland) (emission wavelength: P-535 nm, S-535 nm, excitation wavelength: 480 nm), and the result was expressed as an IC50 value, which is the concentration of the compound that inhibited PDE9A by 50% in vitro (Table 2).
# PDE9A, sequence (O76083 whole entry): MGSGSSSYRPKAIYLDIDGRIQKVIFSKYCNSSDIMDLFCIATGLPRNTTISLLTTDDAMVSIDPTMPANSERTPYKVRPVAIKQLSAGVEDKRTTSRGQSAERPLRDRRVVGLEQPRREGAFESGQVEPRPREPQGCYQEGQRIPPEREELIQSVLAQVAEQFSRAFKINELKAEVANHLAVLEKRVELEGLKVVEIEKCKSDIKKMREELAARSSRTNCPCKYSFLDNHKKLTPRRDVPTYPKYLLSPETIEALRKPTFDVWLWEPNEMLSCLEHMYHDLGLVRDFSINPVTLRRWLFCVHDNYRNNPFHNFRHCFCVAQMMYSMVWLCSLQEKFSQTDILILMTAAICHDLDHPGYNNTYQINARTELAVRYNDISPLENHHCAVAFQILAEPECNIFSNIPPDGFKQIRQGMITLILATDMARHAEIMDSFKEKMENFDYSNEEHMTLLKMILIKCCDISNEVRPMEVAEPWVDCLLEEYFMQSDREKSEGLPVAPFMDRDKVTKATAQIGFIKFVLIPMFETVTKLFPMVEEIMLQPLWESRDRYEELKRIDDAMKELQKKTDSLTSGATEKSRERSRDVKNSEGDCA
row,inhibition at 10 µM [%],Compound
1,27.7,"O=c1[nH]c(SCc2nc3cc(Cl)cc(Cl)c3o2)nc2c1cnn2-c1ccccc1 [Example 32, 6-(((5,7-dichlorobenzo[d]oxazol-2-yl)methyl)thio)-1-phenyl-1,5-dihydro-4H-pyrazolo[3,4-d]pyrimidin-4-one]"
2,83.6,"COc1ccc2nc(CSc3nc4c(cnn4-c4ccccc4)c(=O)[nH]3)oc2c1 [Example 35, 6-(((6-methoxybenzo[d]oxazol-2-yl)methyl)thio)-1-phenyl-1,5-dihydro-4H-pyrazolo[3,4-d]pyrimidin-4-one]"

# Same assay, conditions: Fl-cGMP substrate 100 nM, PDE9A 5 ng/ml, 1 hour at room temperature
row,IC50 [nM],Compound
1,74,"O=c1[nH]c(SCc2nc3ccc([N+](=O)[O-])cc3o2)nc2c1cnn2C1CCC(F)(F)CC1 [Example 37, 1-(4,4-difluorocyclohexyl)-6-(((6-nitrobenzo[d]oxazol-2-yl)methyl)thio)-1,5-dihydro-4H-pyrazolo[3,4-d]pyrimidin-4-one]"
2,45,"O=c1[nH]c(SCc2nc3cc([N+](=O)[O-])ccc3o2)nc2c1cnn2C1CCC(F)(F)CC1 [Example 38, 1-(4,4-difluorocyclohexyl)-6-(((5-nitrobenzo[d]oxazol-2-yl)methyl)thio)-1,5-dihydro-4H-pyrazolo[3,4-d]pyrimidin-4-one]"
3,77,"O=c1[nH]c(SCc2nc3c([N+](=O)[O-])cccc3o2)nc2c1cnn2C1CCC(F)(F)CC1 [Example 39, 1-(4,4-difluorocyclohexyl)-6-(((4-nitrobenzo[d]oxazol-2-yl)methyl)thio)-1,5-dihydro-4H-pyrazolo[3,4-d]pyrimidin-4-one]"
4,1660,"O=c1[nH]c(SCc2nc3cc(Cl)c([N+](=O)[O-])cc3o2)nc2c1cnn2C1CCC(F)(F)CC1 [Example 40, 6-(((5-chloro-6-nitrobenzo[d]oxazol-2-yl)methyl)thio)-1-(4,4-difluorocyclohexyl)-1,5-dihydro-4H-pyrazolo[3,4-d]pyrimidin-4-one]"
5,120,"O=c1[nH]c(SCc2nc3cc(Cl)cc(Cl)c3o2)nc2c1cnn2C1CCC(F)(F)CC1 [Example 43, 6-(((5,7-dichlorobenzo[d]oxazol-2-yl)methyl)thio)-1-(4,4-difluorocyclohexyl)-1,5-dihydro-4H-pyrazolo[3,4-d]pyrimidin-4-one]"
6,23,"O=c1[nH]c(SCc2nc3ccc([N+](=O)[O-])cc3o2)nc2c1cnn2C1CCOCC1 [Example 48, 6-(((6-nitrobenzo[d]oxazol-2-yl)methyl)thio)-1-(tetrahydro-2H-pyran-4-yl)-1,5-dihydro-4H-pyrazolo[3,4-d]pyrimidin-4-one]"
7,32,"O=c1[nH]c(SCc2nc3cc([N+](=O)[O-])ccc3o2)nc2c1cnn2C1CCOCC1 [Example 49, 6-(((5-nitrobenzo[d]oxazol-2-yl)methyl)thio)-1-(tetrahydro-2H-pyran-4-yl)-1,5-dihydro-4H-pyrazolo[3,4-d]pyrimidin-4-one]"
8,130,"O=c1[nH]c(SCc2nc3c([N+](=O)[O-])cccc3o2)nc2c1cnn2C1CCOCC1 [Example 50, 6-(((4-nitrobenzo[d]oxazol-2-yl)methyl)thio)-1-(tetrahydro-2H-pyran-4-yl)-1,5-dihydro-4H-pyrazolo[3,4-d]pyrimidin-4-one]"
9,35,"O=c1[nH]c(SCc2nc3cc(Cl)c([N+](=O)[O-])cc3o2)nc2c1cnn2C1CCOCC1 [Example 51, 6-(((5-chloro-6-nitrobenzo[d]oxazol-2-yl)methyl)thio)-1-(tetrahydro-2H-pyran-4-yl)-1,5-dihydro-4H-pyrazolo[3,4-d]pyrimidin-4-one]"
10,17,"Cc1cccc2oc(CSc3nc4c(cnn4C4CCOCC4)c(=O)[nH]3)nc12 [Example 52, 6-(((4-methylbenzo[d]oxazol-2-yl)methyl)thio)-1-(tetrahydro-2H-pyran-4-yl)-1,5-dihydro-4H-pyrazolo[3,4-d]pyrimidin-4-one]"
11,45,"CC(C)(C)c1ccc2oc(CSc3nc4c(cnn4C4CCOCC4)c(=O)[nH]3)nc2c1 [Example 53, 6-(((5-(tert-butyl)benzo[d]oxazol-2-yl)methyl)thio)-1-(tetrahydro-2H-pyran4-yl)-1,5-dihydro-4H-pyrazolo[3,4-d]pyrimidin-4-one]"
12,19,"O=c1[nH]c(SCc2nc3cc(Cl)cc(Cl)c3o2)nc2c1cnn2C1CCOCC1 [Example 54, 6-(((5,7-dichlorobenzo[d]oxazol-2-yl)methyl)thio)-1-(tetrahydro-2H-pyran4-yl)-1,5-dihydro-4H-pyrazolo[3,4-d]pyrimidin-4-one]"
13,10,"Cc1cc(C)c2oc(CSc3nc4c(cnn4C4CCOCC4)c(=O)[nH]3)nc2c1 [Example 55, 6-(((5,7-dimethylbenzo[d]oxazol-2-yl)methyl)thio)-1-(tetrahydro-2H-pyran-4-yl)-1,5-dihydro-4H-pyrazolo[3,4-d]pyrimidin-4-one]"
14,3,"COc1ccc2nc(CSc3nc4c(cnn4C4CCOCC4)c(=O)[nH]3)oc2c1 [Example 56, 6-(((6-methoxybenzo[d]oxazol-2-yl)methyl)thio)-1-(tetrahydro-2H-pyran-4-yl)-1,5-dihydro-4H-pyrazolo[3,4-d]pyrimidin-4-one]"

# Further lines, the molecule ahead of its results:
row,Compound,IC50 [nM]
1,"Cc1cc(C)c2oc(CSc3nc4c(cnn4-c4ccccc4)c(=O)[nH]3)nc2c1 [Example 33, 6-(((5,7-dimethylbenzo[d]oxazol-2-yl)methyl)thio)-1-phenyl-1,5-dihydro-4H-pyrazolo[3,4-d]pyrimidin-4-one]",950
2,"COc1ccc2oc(CSc3nc4c(cnn4-c4ccccc4)c(=O)[nH]3)nc2c1 [Example 34, 6-(((5-methoxybenzo[d]oxazol-2-yl)methyl)thio)-1-phenyl-1,5-dihydro-4H-pyrazolo[3,4-d]pyrimidin-4-one]",120
3,"O=c1[nH]c(SCc2nc3cc(C(F)(F)F)ccc3o2)nc2c1cnn2-c1ccccc1 [Example 36, 1-phenyl-6-(((5-(trifluoromethyl)benzo[d]oxazol-2-yl)methyl)thio)-1,5-dihydro-4H-pyrazolo[3,4-d]pyrimidin-4-one]",34100
4,"Cc1cccc2oc(CSc3nc4c(cnn4C4CCC(F)(F)CC4)c(=O)[nH]3)nc12 [Example 41, 1-(4,4-difluorocyclohexyl)-6-(((4-methylbenzo[d]oxazol-2-yl)methyl)thio)-1,5-dihydro-4H-pyrazolo[3,4-d]pyrimidin-4-one]",22
5,"CC(C)(C)c1ccc2oc(CSc3nc4c(cnn4C4CCC(F)(F)CC4)c(=O)[nH]3)nc2c1 [Example 42, 6-(((5-(tert-butyl)benzo[d]oxazol-2-yl)methyl)thio)-1-(4,4-difluorocyclohexyl)-1,5-dihydro-4H-pyrazolo[3,4-d]pyrimidin-4-one]",130
6,"Cc1cc(C)c2oc(CSc3nc4c(cnn4C4CCC(F)(F)CC4)c(=O)[nH]3)nc2c1 [Example 44, 1-(4,4-difluorocyclohexyl)-6-(((5,7-dimethylbenzo[d]oxazol-2-yl)methyl)thio)-1,5-dihydro-4H-pyrazolo[3,4-d]pyrimidin-4-one]",15
7,"COc1ccc2oc(CSc3nc4c(cnn4C4CCC(F)(F)CC4)c(=O)[nH]3)nc2c1 [Example 45, 1-(4,4-difluorocyclohexyl)-6-(((5-methoxybenzo[d]oxazol-2-yl)methyl)thio)-1,5-dihydro-4H-pyrazolo[3,4-d]pyrimidin-4-one]",8
8,"COc1ccc2nc(CSc3nc4c(cnn4C4CCC(F)(F)CC4)c(=O)[nH]3)oc2c1 [Example 46, 1-(4,4-difluorocyclohexyl)-6-(((6-methoxybenzo[d]oxazol-2-yl)methyl)thio)-1,5-dihydro-4H-pyrazolo[3,4-d]pyrimidin-4-one]",3
9,"O=c1[nH]c(SCc2nc3cc(C(F)(F)F)ccc3o2)nc2c1cnn2C1CCC(F)(F)CC1 [Example 47, 1-(4,4-difluorocyclohexyl)-6-(((5-(trifluoromethyl)benzo[d]oxazol-2-yl)methyl)thio)-1,5-dihydro-4H-pyrazolo[3,4-d]pyrimidin-4-one]",120
